# Experimental data reported in publication PMC7006505, “Chemical biology tools for probing transcytosis at the blood–brain barrier” (Chemical Science, 2019).
# Assays:
# [1] = target: T1, extracellular subunit of TfR recombinant human protein, N-His Tag (Homo sapiens, UniProt P02786); experiment: TfR binding ELISA (FAM-labelled shuttles on TfR-coated plates); conditions: plates coated with 1 µg/ml TfR, 1 h at room temp in PBS, anti-FAM HRP antibody (streptavidin peroxidase for Tf-biotin), absorption 450 nm, read-out: apparent binding affinity (EC50) to TfR
# T1 construct: extracellular subunit of TfR; purchased Life Technologies
# Method: To evaluate functionality of the conjugated peptides, in vitro analyses were performed. TfR binding was assessed through an ELISA format, whereby FAM-conjugated shuttles were serially diluted and added to plates that were coated with TfR protein. FAM-labelled vehicles were detected by an anti-FAM HRP-conjugated antibody.
# The procedure was performed at room temp on a shaking platform using PBS-Tween (0.05%) for the wash steps. Nickel coated clear 96-well plates (Pierce) was coated overnight with 1 µg/ml of the extracellular subunit of TfR recombinant human protein, N-His Tag (Life Technologies) in 0.5 M Carbonate buffer. The plates were washed (5 × 150 µL) and blocked for 1 h with PBS containing 1% BSA. 100 µL of the compound dilutions in PBS were transferred to the plate and incubated for 1 h at room temp, after which time the plates were washed (5 × 150 µL). A Goat anti-FAM peroxidase labelled antibody (Abcam, 1:100 000) was added to the wells and incubated for 30 min. Following 6 washes, 50 µL of TMB Substrate Solution (Sigma) was added per well and incubated for a further 30 min. After addition of 50 µL of 2 M sulphuric acid to each well , receptor complexes were detected by measuring absorption at 450 nm. The procedure for determining the binding affinity of biotin labelled Tf (Sigma) was similar except streptavidin peroxidas e (ThermoFisher Scientific) (1:20 000) was used to measure the Tf -receptor complex.
# Imaging and Immunochemistry
# Colocalis ation of delivery scaffolds with LAMP1 and Tf -A647 bEND.3 cells were seeded at a density of 1 x 10^4 cells/we ll in 8-well glass plates (ibidi ) coated with rat tail collagen. After 3 days at 100 % confluence, cells were washed with PBS (3 × 180 µL), and co-incubated with brain delivery scaffolds (5 µM) and Tf-A647 (50 µg/ml) at 37 °C for 2 h in FluoroBrite DMEM media (Thermofisher). Cells were washed with PBS (3 × 180 µL), then fixed with 4 % paraformaldehyde for 15 min at room temperature. […]
# TfR = conditions: micromolar affinity; read-out: affinity towards the receptor (TfR); cited from earlier work
# Source text: To enable targeted brain delivery, we chose to functionalise our scaffold with established ligands that engage the transferrin receptor (TfR) and low-density lipoprotein-receptor related protein (LRP1). The relative abundance of these receptors on brain endothelial, alongside their high transport capacity, made them ideal targets for RMT mediated delivery and both have been actively explored in research.[8],[14]–[16]
# T1 sequence (P02786 89-760 limits assumed): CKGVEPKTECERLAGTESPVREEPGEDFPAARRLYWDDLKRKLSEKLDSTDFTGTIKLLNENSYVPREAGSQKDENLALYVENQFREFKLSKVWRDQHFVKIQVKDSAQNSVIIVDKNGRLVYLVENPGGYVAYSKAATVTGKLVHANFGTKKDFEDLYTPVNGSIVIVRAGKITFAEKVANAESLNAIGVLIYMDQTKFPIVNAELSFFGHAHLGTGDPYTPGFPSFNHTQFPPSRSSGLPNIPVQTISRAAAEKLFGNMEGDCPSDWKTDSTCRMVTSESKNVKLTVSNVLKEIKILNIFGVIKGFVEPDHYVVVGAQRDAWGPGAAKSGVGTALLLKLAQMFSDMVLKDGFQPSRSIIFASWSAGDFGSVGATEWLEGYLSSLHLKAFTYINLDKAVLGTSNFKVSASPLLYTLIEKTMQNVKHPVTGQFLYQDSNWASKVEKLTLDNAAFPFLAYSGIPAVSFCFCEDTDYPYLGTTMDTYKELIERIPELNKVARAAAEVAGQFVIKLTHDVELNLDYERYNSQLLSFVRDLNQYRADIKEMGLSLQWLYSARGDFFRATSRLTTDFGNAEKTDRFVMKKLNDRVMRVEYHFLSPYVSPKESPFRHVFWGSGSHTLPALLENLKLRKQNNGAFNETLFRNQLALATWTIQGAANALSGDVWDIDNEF
EC50 [1] [µM],Compound,Kd (TfR) [µM]
0.0118 ± 0.00111,CC[C@H](C)[C@H](NC(=O)[C@H](C)NC(=O)[C@H](Cc1c[nH]cn1)NC(=O)[C@@H](N)CCCCn1cc(C[C@H](NC(=O)[C@H](CCCNC(=N)N)NC(=O)[C@@H](NC(=O)[C@@H]2CCCN2C(=O)[C@@H]2CCCN2C(=O)[C@@H]2CCCN2C(=O)[C@H](CC(C)C)NC(=O)[C@H](CCCNC(=N)N)NC(=O)[C@@H](NC(=O)[C@@H]2CCCN2C(=O)[C@@H]2CCCN2C(=O)[C@@H]2CCCN2C(=O)[C@H](Cc2cn(CCCC[C@H](N)C(=O)N[C@@H](Cc3c[nH]cn3)C(=O)N[C@@H](C)C(=O)N[C@H](C(=O)N[C@@H](Cc3ccc(O)cc3)C(=O)N3CCC[C@H]3C(=O)N[C@@H](CCCNC(=N)N)C(=O)N[C@@H](Cc3c[nH]cn3)C(N)=O)[C@@H](C)CC)nn2)NC(=O)[C@H](CCCNC(=N)N)NC(=O)[C@@H](NC(=O)c2ccc3c(c2)C(=O)OC32c3ccc(O)cc3Oc3cc(O)ccc32)C(C)C)C(C)C)C(C)C)C(=O)N2CCC[C@H]2C(=O)N2CCC[C@H]2C(=O)N2CCC[C@H]2C(N)=O)nn1)C(=O)N[C@@H](Cc1ccc(O)cc1)C(=O)N1CCC[C@H]1C(=O)N[C@@H](CCCNC(=N)N)C(=O)N[C@@H](Cc1c[nH]cn1)C(N)=O [PPII(L3X;L15X)TfRL2],–
–,HAIYPRH [TfRL2],440
0.0127 ± 0.00137,CC[C@H](C)[C@H](NC(=O)[C@H](C)NC(=O)[C@H](Cc1c[nH]cn1)NC(=O)[C@@H](N)CCCCn1cc(C[C@H](NC(=O)[C@@H]2CCCN2C(=O)[C@@H]2CCCN2C(=O)[C@@H]2CCCN2C(=O)[C@H](CC(C)C)NC(=O)[C@H](CCCNC(=N)N)NC(=O)[C@@H](NC(=O)[C@@H]2CCCN2C(=O)[C@@H]2CCCN2C(=O)[C@@H]2CCCN2C(=O)[C@H](Cc2cn(CCCC[C@H](N)C(=O)N[C@@H](Cc3c[nH]cn3)C(=O)N[C@@H](C)C(=O)N[C@H](C(=O)N[C@@H](Cc3ccc(O)cc3)C(=O)N3CCC[C@H]3C(=O)N[C@@H](CCCNC(=N)N)C(=O)N[C@@H](Cc3c[nH]cn3)C(N)=O)[C@@H](C)CC)nn2)NC(=O)[C@H](CCCNC(=N)N)NC(=O)[C@@H](NC(=O)c2ccc3c(c2)C(=O)OC32c3ccc(O)cc3Oc3cc(O)ccc32)C(C)C)C(C)C)C(=O)N[C@@H](CCCNC(=N)N)C(=O)N[C@@H](CC(C)C)C(=O)N2CCC[C@H]2C(=O)N2CCC[C@H]2C(=O)N2CCC[C@H]2C(N)=O)nn1)C(=O)N[C@@H](Cc1ccc(O)cc1)C(=O)N1CCC[C@H]1C(=O)N[C@@H](CCCNC(=N)N)C(=O)N[C@@H](Cc1c[nH]cn1)C(N)=O [PPII(L3X;V13X)TfRL2],–

Compound,EC50 [1] [µM],Kd (TfR) [µM]
Tf-biotin: biotin labelled transferrin (Sigma) [reference compound],0.0209 ± 0.0021,–
